Assays:
[1] = target: T1, ALK4 (Homo sapiens, UniProt P36896); assay: Selectivity Ki, ALK4; type: biochemical
T1 sequence (P36896 24-505): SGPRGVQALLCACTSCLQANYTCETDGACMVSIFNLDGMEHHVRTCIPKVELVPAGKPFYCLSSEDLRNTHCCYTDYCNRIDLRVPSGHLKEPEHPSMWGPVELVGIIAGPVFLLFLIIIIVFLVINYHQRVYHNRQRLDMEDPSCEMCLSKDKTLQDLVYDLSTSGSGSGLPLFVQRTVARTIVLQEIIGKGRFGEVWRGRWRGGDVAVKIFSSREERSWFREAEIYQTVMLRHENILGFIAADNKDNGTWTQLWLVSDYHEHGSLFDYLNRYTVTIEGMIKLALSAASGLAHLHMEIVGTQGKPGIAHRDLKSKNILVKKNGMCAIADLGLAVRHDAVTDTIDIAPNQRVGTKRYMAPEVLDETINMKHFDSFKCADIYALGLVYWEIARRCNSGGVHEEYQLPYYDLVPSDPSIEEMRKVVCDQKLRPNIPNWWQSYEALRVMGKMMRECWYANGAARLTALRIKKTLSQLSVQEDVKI

[2] = target: KDR (Homo sapiens, UniProt P35968); assay: Selectivity Ki, KDR; type: biochemical
[3] = Plasma protein binding, human; type: in vitro ADME; details: read-out: Plasma protein binding (% Fu) Human
[4] = target: AMPK; assay: Selectivity Ki, AMPK; type: biochemical
[5] = target: T2, BMPR2 (Homo sapiens, UniProt Q13873); assay: Selectivity Ki, BMPR2; type: biochemical
T2 sequence (Q13873 27-1038): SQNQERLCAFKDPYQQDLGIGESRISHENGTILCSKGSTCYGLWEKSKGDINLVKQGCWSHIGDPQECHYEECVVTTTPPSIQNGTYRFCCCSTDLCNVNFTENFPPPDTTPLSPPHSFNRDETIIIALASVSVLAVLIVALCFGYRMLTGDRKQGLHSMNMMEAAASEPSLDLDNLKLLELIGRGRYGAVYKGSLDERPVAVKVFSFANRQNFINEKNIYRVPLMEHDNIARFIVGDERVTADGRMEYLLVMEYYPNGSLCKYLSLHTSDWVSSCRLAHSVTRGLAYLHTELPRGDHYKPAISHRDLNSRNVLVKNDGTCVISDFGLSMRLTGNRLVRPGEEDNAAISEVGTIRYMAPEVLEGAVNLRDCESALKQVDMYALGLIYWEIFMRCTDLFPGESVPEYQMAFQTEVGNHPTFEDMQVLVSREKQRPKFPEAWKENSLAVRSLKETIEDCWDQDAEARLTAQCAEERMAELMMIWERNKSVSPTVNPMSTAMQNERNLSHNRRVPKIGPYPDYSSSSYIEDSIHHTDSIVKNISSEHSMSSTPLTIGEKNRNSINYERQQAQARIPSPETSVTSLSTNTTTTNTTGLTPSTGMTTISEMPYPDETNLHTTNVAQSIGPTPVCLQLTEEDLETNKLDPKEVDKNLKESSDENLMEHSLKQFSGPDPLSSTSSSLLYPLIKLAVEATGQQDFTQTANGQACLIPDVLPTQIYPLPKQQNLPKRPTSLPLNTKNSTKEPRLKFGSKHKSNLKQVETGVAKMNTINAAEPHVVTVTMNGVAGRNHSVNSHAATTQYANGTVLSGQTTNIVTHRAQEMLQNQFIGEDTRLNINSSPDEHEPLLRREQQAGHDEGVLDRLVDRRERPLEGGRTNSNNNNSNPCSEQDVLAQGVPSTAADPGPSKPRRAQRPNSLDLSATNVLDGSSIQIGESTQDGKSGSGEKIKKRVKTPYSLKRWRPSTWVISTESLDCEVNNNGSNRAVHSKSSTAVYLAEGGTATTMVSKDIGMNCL

[6] = target: ALK1 (Homo sapiens, UniProt P37023); assay: Selectivity Ki, ALK1; type: biochemical
[7] = target: ALK6 (Homo sapiens, UniProt O00238); assay: Selectivity Ki, ALK6; type: biochemical
[8] = system: hepcidin expression; assay: IRIDA animal model, liver hepcidin mRNA 2 hours after injection; type: in vivo; details: Tmprss6−/− mice, 2 hours after injecting (FIG. 13)
Description: The efficacy of compounds was shown in an IRIDA animal model. Initially, an exemplary dose and time point was determined in wild type mice. Briefly, liver mRNA and proteins were extracted. Hepcidin and Id1 mRNA expression was measured by real-time PCR and Smad 1-5-8 phosphorylation was assayed by Western blot analysis. FIGS. 10A-10D depict the RT-PCR data for various inflammatory markers in the liver. FIGS. 11A and 11B depict the RT-PCR data for Hamp mRNA and Id1 mRNA expression. FIG. 12A-12C depict the results of the Western blot analysis.

[9] = system: Hepcidin expression; assay: In vitro model of Hepcidin expression (HAMP/HPRT1, alone and with BMP-6); type: cell-based; details: as compared to control (FIGS. 6-9)
[10] = Plasma protein binding, mouse; type: in vitro ADME; details: read-out: Plasma protein binding (% Fu) Mouse
[11] = target: T3, ALK2 (Homo sapiens, UniProt Q04771); assay: Selectivity Ki, ALK2; type: biochemical
T3 sequence (Q04771 21-509): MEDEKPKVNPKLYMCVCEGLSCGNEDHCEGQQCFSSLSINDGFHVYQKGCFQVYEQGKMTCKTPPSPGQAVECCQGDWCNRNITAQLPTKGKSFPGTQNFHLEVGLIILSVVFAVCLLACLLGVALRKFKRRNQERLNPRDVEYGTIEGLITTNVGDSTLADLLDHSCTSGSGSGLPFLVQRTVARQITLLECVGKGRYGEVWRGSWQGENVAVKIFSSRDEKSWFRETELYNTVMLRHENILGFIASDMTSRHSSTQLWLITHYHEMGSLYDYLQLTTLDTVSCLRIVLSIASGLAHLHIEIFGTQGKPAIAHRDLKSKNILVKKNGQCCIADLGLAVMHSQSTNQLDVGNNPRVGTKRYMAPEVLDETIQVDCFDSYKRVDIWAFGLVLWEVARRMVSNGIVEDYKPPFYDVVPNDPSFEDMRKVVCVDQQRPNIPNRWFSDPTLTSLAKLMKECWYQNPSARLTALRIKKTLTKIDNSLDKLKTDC

[12] = In vitro DMPK intrinsic clearance, mouse; type: in vitro ADME
[13] = system: BMP4; assay: BMP4 biological assay (Table 3); type: cell-based
[14] = target: ALK3 (Homo sapiens, UniProt P36894); assay: Selectivity Ki, ALK3; type: biochemical
[15] = In vitro DMPK intrinsic clearance, human; type: in vitro ADME
[16] = target: T4, ALK5 (Homo sapiens, UniProt P36897); assay: Selectivity Ki, ALK5; type: biochemical
T4 sequence (P36897 34-503): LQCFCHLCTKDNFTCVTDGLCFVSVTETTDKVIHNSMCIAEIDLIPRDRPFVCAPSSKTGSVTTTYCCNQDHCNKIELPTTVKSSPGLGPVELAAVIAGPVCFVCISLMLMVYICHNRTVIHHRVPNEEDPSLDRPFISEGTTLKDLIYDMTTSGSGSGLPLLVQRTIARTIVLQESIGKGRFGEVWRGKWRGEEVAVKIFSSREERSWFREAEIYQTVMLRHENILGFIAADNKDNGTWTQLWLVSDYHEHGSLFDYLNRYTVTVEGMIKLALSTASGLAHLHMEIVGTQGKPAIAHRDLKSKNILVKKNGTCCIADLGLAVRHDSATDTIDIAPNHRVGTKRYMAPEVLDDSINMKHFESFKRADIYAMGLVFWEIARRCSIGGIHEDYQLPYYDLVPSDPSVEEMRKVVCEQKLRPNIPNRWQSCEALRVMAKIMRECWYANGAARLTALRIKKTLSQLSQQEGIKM

[17] = target: TGFβR2 (Homo sapiens, UniProt P37173); assay: Selectivity Ki, TGFβR2; type: biochemical
[18] = Plasma protein binding, rat; type: in vitro ADME; details: read-out: Plasma protein binding (% Fu) Rat
[19] = In vitro DMPK intrinsic clearance, rat; type: in vitro ADME
[20] = read-out: Intrinsic clearance hCLHEP
[21] = read-out: Intrinsic clearance hCLINT

ALK3, sequence (P36894 24-532, species assumed): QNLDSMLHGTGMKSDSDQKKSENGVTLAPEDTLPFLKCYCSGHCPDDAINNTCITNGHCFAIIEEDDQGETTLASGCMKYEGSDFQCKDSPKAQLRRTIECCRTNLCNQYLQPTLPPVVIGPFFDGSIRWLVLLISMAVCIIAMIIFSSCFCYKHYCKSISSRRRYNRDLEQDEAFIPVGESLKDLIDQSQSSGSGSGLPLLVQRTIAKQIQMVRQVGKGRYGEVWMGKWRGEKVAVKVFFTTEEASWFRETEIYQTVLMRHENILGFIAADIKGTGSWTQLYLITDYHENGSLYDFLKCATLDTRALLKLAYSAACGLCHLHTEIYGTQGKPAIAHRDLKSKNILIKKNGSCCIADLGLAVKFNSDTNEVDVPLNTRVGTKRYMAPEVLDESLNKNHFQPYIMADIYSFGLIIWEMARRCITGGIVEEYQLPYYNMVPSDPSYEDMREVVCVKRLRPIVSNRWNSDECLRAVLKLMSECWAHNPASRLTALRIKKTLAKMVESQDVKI
ALK1, sequence (P37023 22-503, species assumed): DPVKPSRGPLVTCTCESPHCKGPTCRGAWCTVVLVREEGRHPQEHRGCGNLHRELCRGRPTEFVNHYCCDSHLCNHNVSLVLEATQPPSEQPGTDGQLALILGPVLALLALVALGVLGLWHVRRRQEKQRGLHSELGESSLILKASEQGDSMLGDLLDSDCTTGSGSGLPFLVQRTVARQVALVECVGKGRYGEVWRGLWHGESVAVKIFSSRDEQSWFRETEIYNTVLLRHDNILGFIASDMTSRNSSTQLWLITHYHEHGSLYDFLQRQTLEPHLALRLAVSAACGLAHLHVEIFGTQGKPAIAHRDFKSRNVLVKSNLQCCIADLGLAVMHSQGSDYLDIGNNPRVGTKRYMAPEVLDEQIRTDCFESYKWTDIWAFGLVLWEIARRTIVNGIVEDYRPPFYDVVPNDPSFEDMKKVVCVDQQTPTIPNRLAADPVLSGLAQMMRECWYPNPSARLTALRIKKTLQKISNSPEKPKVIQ
KDR, sequence (P35968 20-1356, species assumed): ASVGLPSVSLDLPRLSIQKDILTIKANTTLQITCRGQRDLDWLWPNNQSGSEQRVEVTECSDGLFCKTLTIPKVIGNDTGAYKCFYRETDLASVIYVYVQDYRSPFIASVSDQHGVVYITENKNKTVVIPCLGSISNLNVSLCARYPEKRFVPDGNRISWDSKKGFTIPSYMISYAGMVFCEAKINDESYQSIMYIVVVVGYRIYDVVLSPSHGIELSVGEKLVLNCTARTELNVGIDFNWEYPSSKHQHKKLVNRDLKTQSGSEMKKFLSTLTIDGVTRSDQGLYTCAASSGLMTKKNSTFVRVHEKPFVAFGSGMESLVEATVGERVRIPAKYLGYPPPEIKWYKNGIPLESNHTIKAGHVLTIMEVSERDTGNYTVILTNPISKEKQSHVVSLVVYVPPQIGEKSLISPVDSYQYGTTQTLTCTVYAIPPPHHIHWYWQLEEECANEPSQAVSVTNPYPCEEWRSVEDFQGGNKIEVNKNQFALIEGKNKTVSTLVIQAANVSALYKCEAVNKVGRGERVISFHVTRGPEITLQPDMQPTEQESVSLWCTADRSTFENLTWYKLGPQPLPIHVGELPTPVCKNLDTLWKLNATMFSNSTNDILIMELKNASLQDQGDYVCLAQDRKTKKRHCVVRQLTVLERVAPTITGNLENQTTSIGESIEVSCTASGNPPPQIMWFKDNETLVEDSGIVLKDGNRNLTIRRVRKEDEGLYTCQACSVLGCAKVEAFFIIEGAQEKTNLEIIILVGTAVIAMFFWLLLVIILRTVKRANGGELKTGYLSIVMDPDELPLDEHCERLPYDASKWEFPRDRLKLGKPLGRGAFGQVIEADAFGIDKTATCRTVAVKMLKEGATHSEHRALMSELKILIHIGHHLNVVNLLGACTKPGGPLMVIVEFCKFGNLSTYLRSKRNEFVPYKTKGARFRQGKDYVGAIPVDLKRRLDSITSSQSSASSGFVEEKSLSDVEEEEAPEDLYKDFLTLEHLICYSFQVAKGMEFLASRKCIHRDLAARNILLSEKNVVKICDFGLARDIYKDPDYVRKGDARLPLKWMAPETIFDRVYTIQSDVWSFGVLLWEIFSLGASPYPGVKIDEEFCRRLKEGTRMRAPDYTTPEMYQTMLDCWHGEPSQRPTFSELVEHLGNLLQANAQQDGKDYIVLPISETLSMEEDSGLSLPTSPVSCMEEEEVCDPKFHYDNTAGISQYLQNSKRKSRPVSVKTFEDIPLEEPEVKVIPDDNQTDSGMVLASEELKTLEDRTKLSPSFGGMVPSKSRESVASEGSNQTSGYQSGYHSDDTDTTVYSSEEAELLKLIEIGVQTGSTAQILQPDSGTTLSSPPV
TGFβR2, sequence (P37173 23-567): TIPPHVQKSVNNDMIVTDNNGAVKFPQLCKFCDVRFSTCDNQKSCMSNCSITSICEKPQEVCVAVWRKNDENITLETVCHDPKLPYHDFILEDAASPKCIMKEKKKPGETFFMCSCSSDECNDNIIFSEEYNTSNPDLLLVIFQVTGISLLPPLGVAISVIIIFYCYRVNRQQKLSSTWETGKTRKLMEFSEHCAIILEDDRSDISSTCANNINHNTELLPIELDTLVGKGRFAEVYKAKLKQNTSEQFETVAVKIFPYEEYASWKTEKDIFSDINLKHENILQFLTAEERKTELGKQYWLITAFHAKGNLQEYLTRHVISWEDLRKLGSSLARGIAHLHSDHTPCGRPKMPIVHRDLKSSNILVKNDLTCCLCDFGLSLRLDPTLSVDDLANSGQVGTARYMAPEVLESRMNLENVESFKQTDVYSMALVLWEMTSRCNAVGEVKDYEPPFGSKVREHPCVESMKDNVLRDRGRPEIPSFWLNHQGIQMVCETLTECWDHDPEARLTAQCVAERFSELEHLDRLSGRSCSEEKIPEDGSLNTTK
ALK6, sequence (O00238 14-502): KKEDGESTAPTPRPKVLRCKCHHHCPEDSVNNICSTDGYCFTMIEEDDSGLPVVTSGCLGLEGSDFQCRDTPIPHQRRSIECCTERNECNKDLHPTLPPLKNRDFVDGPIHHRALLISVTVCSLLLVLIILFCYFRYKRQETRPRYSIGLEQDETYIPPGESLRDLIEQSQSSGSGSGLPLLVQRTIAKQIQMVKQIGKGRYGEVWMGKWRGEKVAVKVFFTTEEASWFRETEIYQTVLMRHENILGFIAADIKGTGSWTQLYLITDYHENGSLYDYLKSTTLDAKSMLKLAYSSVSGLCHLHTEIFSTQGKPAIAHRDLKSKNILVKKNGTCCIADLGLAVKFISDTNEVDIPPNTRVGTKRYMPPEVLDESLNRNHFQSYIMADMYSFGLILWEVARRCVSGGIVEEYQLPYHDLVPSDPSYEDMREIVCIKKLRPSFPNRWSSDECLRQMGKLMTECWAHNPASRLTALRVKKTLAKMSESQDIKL

SMILES: COc1ccc2nc(C)cc(-c3cnc4cc(-c5ccc(N6CCN(C(C)=O)CC6)cc5)ccn34)c2c1 [Compound 48]
- Ki [1]: 144 nM
- Ki [2]: 8730 nM
- fraction unbound [3]: 0.012
- Ki [4]: 8700 nM
- Ki [5]: > 30000 nM
- Ki [6]: 4280 nM
- Ki [7]: 965 nM
- Liver hepcidin mRNA expression [8]: reduction of hepcidin expression
- Hepcidin expression [9]: reduced Hepcidin expression as compared to control
- fraction unbound [10]: 0.058
- Ki [11]: 338 nM
- CLint scaled ([12]; read-out: Intrinsic clearance mCLHEP): 71.5 mL/min/kg
- CLint scaled ([12]; read-out: Intrinsic clearance mCLINT): 349 mL/min/kg
- IC50 [13]: 185 nM
- Ki [14]: < 5.1 nM
- CLint scaled [15, 20]: 19.6 mL/min/kg
- CLint scaled [15, 21]: 294 mL/min/kg
- Ki [16]: 319 nM
- Ki [17]: 196 nM

SMILES: Cc1cc(-c2cnc3cc(-c4ccc(C5CCN(C(C)C)CC5)cc4)ccn23)c2cc(F)ccc2n1 [Compound 168]
- fraction unbound [3]: 0.021
- fraction unbound [18]: 0.014
- Ki [6]: 179 nM
- CLint scaled ([19]; read-out: Intrinsic clearance rCLHEP): 14.5 mL/min/kg
- CLint scaled ([19]; read-out: Intrinsic clearance rCLINT): 18.2 mL/min/kg
- fraction unbound [10]: 0.009
- Ki [11]: 7.2 nM
- IC50 [13]: 392 nM
- Ki [14]: 34.6 nM
- CLint scaled [15, 20]: 6.1 mL/min/kg
- CLint scaled [15, 21]: 8.6 mL/min/kg

— US20190218214A1, “Inhibition of BMP Signaling Compounds, Compositions and Uses Thereof” (Vanderbilt University, priority 2016, published 2019)
